According to patent US20250163032A1, “NOVEL MOLECULES AS INHIBITORS OF DNA DAMAGE REPAIR PATHWAY” (VRise Therapeutics, Inc., priority 2023, published 2025):

Biological target: USP1/UAF1 (Homo sapiens, UniProt O94782)
Assay: USP1/UAF 1 assay (ubiquitin-rhodamine110 fluorometric deubiquitinase assay)
Assay type: biochemical
Conditions: for inhibition at 1 µM: read-out: Biochemical assay % inhibition @1 μM; for IC50: 1 nM USP1/UAF1, 150 nM Ub-Rho, read-out: Biochemical assay IC50
Method: Test-1: USP1/UAF 1 Assay:
Deubiquitinase activity of USP1/UAF1 was monitored in a fluorometric assay using ubiquitin-rhodamine110 as substrate. Briefly, enzymatic reactions were conducted in an assay buffer composed of 50 mM HEPES, pH 7.8, 0.5 mM EDTA, 100 mM NaCl, 1 mM TCEP, 0.1 mg/mL BSA, and 0.01% Tween-20 that contained 1 nM USP1/UAF1. Compounds were tested at desired concentrations. The plates were incubated for 15 min to attain equilibrium, and then the enzymatic reaction was initiated by dispensing 150 nM Ub-Rho solution. Fluorescence measurement was performed in a high throughput CCD imager, where kinetic measurements of rhodamine fluorescence were acquired using a 480 nm excitation/540 nm emission filter set. The change in fluorescence intensity over a 5-minute reaction period (typically associated with less than 10% substrate conversion) was normalized against no-inhibitor and no-enzyme controls and the resulting percent inhibition data were fitted to a sigmoidal dose response using a four-parameter Hill equation. Data was be analysed and percent inhibition and/or IC50 for each test compound is calculated accordingly.

USP1/UAF1, sequence (O94782 whole entry): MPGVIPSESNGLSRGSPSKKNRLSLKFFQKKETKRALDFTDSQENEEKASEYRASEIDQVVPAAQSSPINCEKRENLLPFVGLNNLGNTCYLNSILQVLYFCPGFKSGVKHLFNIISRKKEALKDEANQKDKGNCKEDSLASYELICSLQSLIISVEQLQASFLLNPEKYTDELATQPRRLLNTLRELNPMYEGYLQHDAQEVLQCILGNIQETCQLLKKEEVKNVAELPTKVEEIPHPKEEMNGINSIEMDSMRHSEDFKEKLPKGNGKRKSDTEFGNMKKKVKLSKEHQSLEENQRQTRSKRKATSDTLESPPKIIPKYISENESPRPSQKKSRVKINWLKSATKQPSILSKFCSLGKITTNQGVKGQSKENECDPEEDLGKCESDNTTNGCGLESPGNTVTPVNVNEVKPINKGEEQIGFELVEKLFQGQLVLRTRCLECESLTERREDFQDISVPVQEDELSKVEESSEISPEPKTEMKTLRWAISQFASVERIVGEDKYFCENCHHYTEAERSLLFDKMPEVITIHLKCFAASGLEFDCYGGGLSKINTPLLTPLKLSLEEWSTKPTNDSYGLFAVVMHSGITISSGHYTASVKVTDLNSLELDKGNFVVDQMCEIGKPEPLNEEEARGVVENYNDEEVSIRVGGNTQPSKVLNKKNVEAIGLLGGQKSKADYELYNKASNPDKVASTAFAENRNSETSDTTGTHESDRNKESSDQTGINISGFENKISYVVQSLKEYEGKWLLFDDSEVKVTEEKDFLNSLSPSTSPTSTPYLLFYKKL
USP1/UAF1, sequence (Q8TAF3 whole entry partner): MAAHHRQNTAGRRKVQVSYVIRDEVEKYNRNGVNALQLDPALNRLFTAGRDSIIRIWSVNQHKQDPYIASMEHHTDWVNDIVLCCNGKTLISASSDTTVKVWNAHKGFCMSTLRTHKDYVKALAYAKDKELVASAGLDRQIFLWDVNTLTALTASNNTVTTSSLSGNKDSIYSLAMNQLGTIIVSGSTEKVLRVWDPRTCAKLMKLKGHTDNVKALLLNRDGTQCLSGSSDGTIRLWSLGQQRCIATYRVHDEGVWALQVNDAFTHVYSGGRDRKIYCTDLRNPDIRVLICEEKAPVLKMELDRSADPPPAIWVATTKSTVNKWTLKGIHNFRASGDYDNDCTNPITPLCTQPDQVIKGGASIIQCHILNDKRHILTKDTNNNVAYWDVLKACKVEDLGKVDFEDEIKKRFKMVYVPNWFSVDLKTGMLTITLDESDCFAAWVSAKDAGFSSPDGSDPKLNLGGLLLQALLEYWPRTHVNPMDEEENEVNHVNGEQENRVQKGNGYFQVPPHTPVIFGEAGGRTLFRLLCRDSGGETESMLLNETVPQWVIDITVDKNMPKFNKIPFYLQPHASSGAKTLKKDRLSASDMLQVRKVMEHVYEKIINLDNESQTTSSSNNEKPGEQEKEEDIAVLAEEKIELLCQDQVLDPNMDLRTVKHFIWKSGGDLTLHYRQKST

Row | Compound | inhibition at 1 µM [%] | further results
1 | CC(C)c1ccccc1-c1nc(NCc2ccc(-c3nc(C(F)(F)F)cn3C)cc2)c2ncn(C3CCCCO3)c2n1 (centres unmarked) [Example 18, 2-(2-isopropylphenyl)-N-(4-(1-methyl-4-(trifluoromethyl)-1H-imidazol-2-yl)benzyl)-9-(tetrahydro-2H-pyran-2-yl)-9H-purin-6-amine] | – | Biochemical assay % inhibition @1 μM (@1 μM): B+++
2 | Cn1cc(C(F)(F)F)nc1-c1ccc(CNc2nc(-c3ccccc3C(F)(F)F)nc3nc[nH]c23)cc1 [Example 45, N-(4-(1-methyl-4-(trifluoromethyl)-1H-imidazol-2-yl)benzyl)-2-(2-(trifluoromethyl)phenyl)-7H-purin-6-amine] | 50 to 75 | –
3 | Cn1cc(C(F)(F)F)nc1-c1ccc(CNc2nc(-c3ccc(F)cc3F)nc3nc[nH]c23)cc1 [Example 40, 2-(2,4-difluorophenyl)-N-(4-(1-methyl-4-(trifluoromethyl)-1H-imidazol-2-yl)benzyl)-7H-purin-6-amine] | 50 to 75 | –
4 | COc1ccc(-c2nc3c(c(NCc4ccc(-c5nc(C(F)(F)F)cn5C)cc4)n2)CCC3)c(OC)c1 [Example 68, 2-(2,4-dimethoxyphenyl)-N-(4-(1-methyl-4-(trifluoromethyl)-1H-imidazol-2-yl)benzyl)-6,7-dihydro-5H-cyclopenta[d]pyrimidin-4-amine] | 50 to 75 | –
5 | Cn1cc(C(F)(F)F)nc1-c1ccc(CNc2nc(-c3ccccc3C(F)(F)F)nc3c2CCC3)cc1 [Example 70, N-(4-(1-methyl-4-(trifluoromethyl)-1H-imidazol-2-yl)benzyl)-2-(2-(trifluoromethyl)phenyl)-6,7-dihydro-5H-cyclopenta[d]pyrimidin-4-amine] | > 75 | –
6 | Cn1cc(C(F)(F)F)nc1-c1ccc(CNc2nc(-c3ccc(-c4ccccc4)cc3)nc3c2CCC3)cc1 [Example 64, 2-([1,1′-biphenyl]-4-yl)-N-(4-(1-methyl-4-(trifluoromethyl)-1H-imidazol-2-yl)benzyl)-6,7-dihydro-5H-cyclopenta[d]pyrimidin-4-amine] | 25 to 50 | –
7 | Cn1cc(C(F)(F)F)nc1-c1ccc(CNc2nc(-c3cccc(C(F)(F)F)c3)nc3nc[nH]c23)cc1 [Example 58, N-(4-(1-methyl-4-(trifluoromethyl)-1H-imidazol-2-yl)benzyl)-2-(3-(trifluoromethyl)phenyl)-7H-purin-6-amine] | 50 to 75 | –
8 | Cc1cccc(-c2nc(NCc3ccc(-c4nc(C(F)(F)F)cn4C)cc3)c3[nH]cnc3n2)c1Cl [Example 38, 2-(2-chloro-3-methylphenyl)-N-(4-(1-methyl-4-(trifluoromethyl)-1H-imidazol-2-yl)benzyl)-7H-purin-6-amine] | 50 to 75 | –
9 | Cn1cc(C(F)(F)F)nc1-c1ccc(CNc2nc(-c3ccc(F)c(C#N)c3)nc3c2CCC3)cc1 [Example 60, 2-fluoro-5-(4-((4-(1-methyl-4-(trifluoromethyl)-1H-imidazol-2-yl)benzyl)amino)-6,7-dihydro-5H-cyclopenta[d]pyrimidin-2-yl)benzonitrile] | 50 to 75 | –
10 | Cn1cc(C(F)(F)F)nc1-c1ccc(CNc2nc(-c3cc(Cl)cc(Cl)c3)nc3nc[nH]c23)cc1 [Example 39, 2-(3,5-dichlorophenyl)-N-(4-(1-methyl-4-(trifluoromethyl)-1H-imidazol-2-yl)benzyl)-7H-purin-6-amine] | 50 to 75 | –
11 | CC(C)c1ccccc1-c1cc2nccn2c(NCc2ccc(-c3nc(C(F)(F)F)cn3C)cc2)n1 [Example 7, 7-(2-isopropylphenyl)-N-(4-(1-methyl-4-(trifluoromethyl)-1H-imidazol-2-yl)benzyl)imidazo[1,2-c]pyrimidin-5-amine] | – | IC50: 100 to 1000 nM
12 | Cn1cc(C(F)(F)F)nc1-c1ccc(CNc2nc(-c3ccc(C(F)(F)F)cc3)nc3nc[nH]c23)cc1 [Example 57, N-(4-(1-methyl-4-(trifluoromethyl)-1H-imidazol-2-yl)benzyl)-2-(4-(trifluoromethyl)phenyl)-7H-purin-6-amine] | 50 to 75 | –
13 | Cn1cc(C(F)(F)F)nc1-c1ccc(CNc2nc(-c3ccc(F)c(C#N)c3)nc3nc[nH]c23)cc1 [Example 49, 2-fluoro-5-(6-((4-(1-methyl-4-(trifluoromethyl)-1H-imidazol-2-yl)benzyl)amino)-7H-purin-2-yl)benzonitrile] | 50 to 75 | –
14 | Cn1cc(C(F)(F)F)nc1-c1ccc(CNc2nc(-c3cccc(OC(F)(F)F)c3)nc3nc[nH]c23)cc1 [Example 46, N-(4-(1-methyl-4-(trifluoromethyl)-1H-imidazol-2-yl)benzyl)-2-(3-(trifluoromethoxy)phenyl)-7H-purin-6-amine] | 50 to 75 | –
15 | Cn1cc(C(F)(F)F)nc1-c1ccc(CNc2nc(-c3ccc(C#N)cc3)nc3c2CCC3)cc1 [Example 63, 4-(4-((4-(1-methyl-4-(trifluoromethyl)-1H-imidazol-2-yl)benzyl)amino)-6,7-dihydro-5H-cyclopenta[d]pyrimidin-2-yl)benzonitrile] | 50 to 75 | –
16 | COc1ncnc(C2CC2)c1-c1nc(NCc2ccc(-c3nc(C(F)(F)F)cn3C)cc2)c2ncn(C)c2n1 [Example 37, 2-(4-cyclopropyl-6-methoxypyrimidin-5-yl)-9-methyl-N-(4-(1-methyl-4-(trifluoromethyl)-1H-imidazol-2-yl)benzyl)-9H-purin-6-amine] | – | inhibition at 10 µM (read-out: Biochemical assay % inhibition @10 μM): > 75%
17 | Cn1cc(C(F)(F)F)nc1-c1ccc(CNc2nc(-c3ccc(Cl)cc3Cl)nc3nc[nH]c23)cc1 [Example 42, 2-(2,4-dichlorophenyl)-N-(4-(1-methyl-4-(trifluoromethyl)-1H-imidazol-2-yl)benzyl)-7H-purin-6-amine] | 50 to 75 | –
18 | Cc1cc(C)cc(-c2nc(NCc3ccc(-c4nc(C(F)(F)F)cn4C)cc3)c3[nH]cnc3n2)c1 [Example 50, 2-(3,5-dimethylphenyl)-N-(4-(1-methyl-4-(trifluoromethyl)-1H-imidazol-2-yl)benzyl)-7H-purin-6-amine] | 50 to 75 | –
19 | COc1cccc(-c2nc(NCc3ccc(-c4nc(C(F)(F)F)cn4C)cc3)c3[nH]cnc3n2)c1F [Example 48, 2-(2-fluoro-3-methoxyphenyl)-N-(4-(1-methyl-4-(trifluoromethyl)-1H-imidazol-2-yl)benzyl)-7H-purin-6-amine] | 50 to 75 | –
20 | Cn1cc(C(F)(F)F)nc1-c1ccc(CNc2nc(-c3ccc(OC(F)(F)F)cc3)nc3nc[nH]c23)cc1 [Example 47, N-(4-(1-methyl-4-(trifluoromethyl)-1H-imidazol-2-yl)benzyl)-2-(4-(trifluoromethoxy)phenyl)-7H-purin-6-amine] | 50 to 75 | –
21 | CC(C)c1ccccc1-c1nc(NCc2ccc(-c3nc(C(F)(F)F)cn3C)cc2)c2[nH]cnc2n1 [Example 15, 2-(2-isopropylphenyl)-N-(4-(1-methyl-4-(trifluoromethyl)-1H-imidazo-2-yl)benzyl)-7H-purin-6-amine] | – | IC50: < 50 nM
22 | COc1ccc(-c2nc3c(c(NCc4ccc(-c5nc(C(F)(F)F)cn5C)cc4)n2)CCC3)c(OC)n1 [Example 65, 2-(2,6-dimethoxypyridin-3-yl)-N-(4-(1-methyl-4-(trifluoromethyl)-1H-imidazol-2-yl)benzyl)-6,7-dihydro-5H-cyclopenta[d]pyrimidin-4-amine] | 50 to 75 | –
23 | COc1ccc(-c2nc(NCc3ccc(-c4nc(C(F)(F)F)cn4C)cc3)c3[nH]cnc3n2)cc1OC [Example 51, 2-(3,4-dimethoxyphenyl)-N-(4-(1-methyl-4-(trifluoromethyl)-1H-imidazol-2-yl)benzyl)-7H-purin-6-amine] | 50 to 75 | –
24 | Cn1cc(C(F)(F)F)nc1-c1ccc(CNc2nc(-c3cccc(Cl)c3F)nc3c2CCC3)cc1 [Example 67, 2-(3-chloro-2-fluorophenyl)-N-(4-(1-methyl-4-(trifluoromethyl)-1H-imidazol-2-yl)benzyl)-6,7-dihydro-5H-cyclopenta[d]pyrimidin-4-amine] | 50 to 75 | –
25 | Cn1cc(C(F)(F)F)nc1-c1ccc(CNc2nc(Cl)nc3c2ncn3C2CCCCO2)cc1 (centres unmarked) [Example 17, 2-chloro-N-(4-(1-methyl-4-(trifluoromethyl)-1H-imidazol-2-yl)benzyl)-9-(tetrahydro-2H-pyran-2-yl)-9H-purin-6-amine] | > 75 | –
26 | CC(=O)Nc1cccc(-c2nc3c(c(NCc4ccc(-c5nc(C(F)(F)F)cn5C)cc4)n2)CCC3)c1 [Example 59, N-(3-(4-((4-(1-methyl-4-(trifluoromethyl)-1H-imidazol-2-yl)benzyl)amino)-6,7-dihydro-5H-cyclopenta[d]pyrimidin-2-yl)phenyl)acetamide] | 50 to 75 | –
27 | COc1cc(-c2nc(NCc3ccc(-c4nc(C(F)(F)F)cn4C)cc3)c3[nH]cnc3n2)ccc1F [Example 52, 2-(4-fluoro-3-methoxyphenyl)-N-(4-(1-methyl-4-(trifluoromethyl)-1H-imidazol-2-yl)benzyl)-7H-purin-6-amine] | 50 to 75 | –
28 | COc1ccc(-c2nc3c(c(NCc4ccc(-c5nc(C(F)(F)F)cn5C)cc4)n2)CCC3)cc1OC [Example 69, 2-(3,4-dimethoxyphenyl)-N-(4-(1-methyl-4-(trifluoromethyl)-1H-imidazol-2-yl)benzyl)-6,7-dihydro-5H-cyclopenta[d]pyrimidin-4-amine] | 50 to 75 | –
29 | Cn1cc(C(F)(F)F)nc1-c1ccc(CNc2nc(-c3cccc(C(N)=O)c3)nc3nc[nH]c23)cc1 [Example 55, 3-(6-((4-(1-methyl-4-(trifluoromethyl)-1H-imidazol-2-yl)benzyl)amino)-7H-purin-2-yl)benzamide] | 50 to 75 | –
